By IC50 is commonly meant the concentration that gives 50% inhibition.

In this assay the target is human TRPA1 (Homo sapiens (Human), UniProt O75762). Description: FLIPR Tetra calcium influx assay, block of cinnamaldehyde-induced calcium influx in CHO cells expressing TRPA1 (human). It is filed as cell-based. The note with it: 20 min compound incubation, 75 uM cinnamaldehyde (~EC80), Hill coefficient fixed to 1.5, read-out: hTRPA1 AUC IC50. In a few lines: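 CHO cells loaded with calcium dye, preincubated with compounds 20 min at room temperature in HBSS/20 mM HEPES pH 7.4 with 0.02% BSA. Channels activated by ~EC80 cinnamaldehyde (75 uM human, 45 uM rat); block of calcium influx read on FLIPR Tetra, IC50 fitted with fixed Hill coefficient.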
Sequence of human TRPA1 (O75762 whole entry): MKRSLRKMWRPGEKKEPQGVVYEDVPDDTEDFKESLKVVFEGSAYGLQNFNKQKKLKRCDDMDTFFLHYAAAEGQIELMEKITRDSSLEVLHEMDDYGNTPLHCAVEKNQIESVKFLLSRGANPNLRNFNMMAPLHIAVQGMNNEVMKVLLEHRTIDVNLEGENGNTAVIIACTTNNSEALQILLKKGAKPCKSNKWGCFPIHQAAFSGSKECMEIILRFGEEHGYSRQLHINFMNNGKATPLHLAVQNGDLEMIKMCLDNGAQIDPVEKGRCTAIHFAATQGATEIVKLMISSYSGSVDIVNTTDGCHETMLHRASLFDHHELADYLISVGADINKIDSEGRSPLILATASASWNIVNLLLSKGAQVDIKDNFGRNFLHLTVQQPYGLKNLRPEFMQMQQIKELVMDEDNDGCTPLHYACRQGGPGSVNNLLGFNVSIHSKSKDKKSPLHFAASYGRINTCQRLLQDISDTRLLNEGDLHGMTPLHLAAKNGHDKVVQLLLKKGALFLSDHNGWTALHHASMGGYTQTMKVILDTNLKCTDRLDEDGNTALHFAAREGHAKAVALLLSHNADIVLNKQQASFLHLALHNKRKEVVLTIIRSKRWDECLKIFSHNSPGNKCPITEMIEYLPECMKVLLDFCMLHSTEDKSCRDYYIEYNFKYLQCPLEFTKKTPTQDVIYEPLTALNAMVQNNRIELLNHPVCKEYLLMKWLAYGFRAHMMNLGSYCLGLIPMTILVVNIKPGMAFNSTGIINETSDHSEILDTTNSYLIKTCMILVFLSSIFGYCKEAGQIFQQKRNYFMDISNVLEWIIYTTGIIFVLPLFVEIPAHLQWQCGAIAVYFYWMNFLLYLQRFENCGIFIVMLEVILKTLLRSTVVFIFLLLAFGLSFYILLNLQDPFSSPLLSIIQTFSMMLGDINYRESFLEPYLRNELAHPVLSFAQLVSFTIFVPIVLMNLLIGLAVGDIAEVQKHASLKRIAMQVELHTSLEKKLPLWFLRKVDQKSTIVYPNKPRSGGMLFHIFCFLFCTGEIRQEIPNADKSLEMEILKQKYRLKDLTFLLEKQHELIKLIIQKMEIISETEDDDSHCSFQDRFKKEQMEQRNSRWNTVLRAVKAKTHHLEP
Take `O=C(NCc1cc(Cl)nc(-c2ccc(C(F)(F)F)nc2)c1)[C@@H]1C[C@@H](F)CN1S(=O)(=O)c1ccc(F)cc1` [Example 84, (2S,4R)—N-[[2-chloro-6-[6-(trifluoromethyl)-3-pyridyl]-4-pyridyl]methyl]-4-fluoro-1-(4-fluorophenyl)sulfonyl-pyrrolidine-2-carboxamide]: the IC50 was 14 nM.
Turning to `COCCOc1cc(-c2ccc(C(F)(F)F)nc2)cc(CNC(=O)[C@@H]2C[C@@H](F)CN2S(=O)(=O)c2ccc(F)cc2)n1` [Example 170, (2S,4R)-4-fluoro-1-(4-fluorophenylsulfonyl)-N-((6′-(2-methoxyethoxy)-6-(trifluoromethyl)-3,4′-bipyridin-2′-yl)methyl)pyrrolidine-2-carboxamide], the IC50 was 89 nM.
With `O=C(NCc1ncc(F)c(-c2ccc(C(F)(F)F)nc2)c1F)[C@@H]1C[C@@H](F)CN1S(=O)(=O)c1ccc(F)cc1` [Example 117, (2S,4R)—N-([3,5-difluoro-4-[6-(trifluoromethyl)pyridin-3-yl]pyridin-2-yl]methyl)-4-fluoro-1-[(4-fluorobenzene)sulfonyl]pyrrolidine-2-carboxamide], the IC50 was determined as 224 nM.
To `O=C(NCc1cc(F)cc(-c2ccc(C(F)F)cn2)c1)[C@@H]1C[C@@H](F)CN1S(=O)(=O)c1ccc(F)cc1` [Example 75, (2S,4R)—N-[[3-[5-(difluoromethyl)-2-pyridyl]-5-fluoro-phenyl]methyl]-4-fluoro-1-(4-fluorophenyl)sulfonyl-pyrrolidine-2-carboxamide] belongs 31 nM.
To `O=C(NCc1cc(-c2ccc(C(F)(F)F)cc2)ncn1)[C@@H]1C[C@@H]2COC[C@@H]2N1S(=O)(=O)c1ccc(F)cc1` (single isomer, unassigned) [Example 100] belongs 449 nM; to `C[C@@]1(C(=O)NCc2cc(-c3ccc(C(F)(F)F)nc3)ncn2)CCN1S(=O)(=O)c1ccc(F)cc1` [Example 198, (S)-1-(4-fluorophenylsulfonyl)-2-methyl-N-((6-(6-(trifluoromethyl)pyridin-3-yl)pyrimidin-4-yl)methyl)azetidine-2-carboxamide], 59 nM.
To `Cc1cnc(CNC(=O)[C@@H]2C[C@@H](F)CN2S(=O)(=O)c2ccc(F)cc2)cc1-c1ccc(C(F)(F)F)nc1` [Example 96, (2S,4R)-4-fluoro-1-(4-fluorophenyl)sulfonyl-N-[[5-methyl-4-[6-(trifluoromethyl)-3-pyridyl]-2-pyridyl]methyl]pyrrolidine-2-carboxamide] belongs 162 nM; to `O=C(NCc1cc(F)cc(-c2ccc(C(F)F)nc2)c1)[C@@H]1C[C@@H](F)CN1S(=O)(=O)c1ccc(F)cc1` [Example 94, (2S,4R)—N-[[3-[6-(difluoromethyl)-3-pyridyl]-5-fluoro-phenyl]methyl]-4-fluoro-1-(4-fluorophenyl)sulfonyl-pyrrolidine-2-carboxamide], 29 nM; to `COc1nn(-c2cnc(C(F)(F)F)nc2)cc1CNC(=O)[C@@H]1C[C@@H](F)CN1S(=O)(=O)c1ccc(F)cc1` [Example 132, (2S,4R)-4-fluoro-1-[(4-fluorobenzene)sulfonyl]-N-([3-methoxy-1-[2-(trifluoromethyl)pyrimidin-5-yl]-1H-pyrazol-4-yl]methyl)pyrrolidine-2-carboxamide], 126 nM.
`O=C(NCc1cc(Cl)nc(-c2ccc(OC(F)F)cc2)c1)[C@@H]1C[C@@H](F)CN1S(=O)(=O)c1ccc(F)cc1` [Example 165, (2S,4R)—N-((2-chloro-6-(4-(difluoromethoxy)phenyl)pyridin-4-yl)methyl)-4-fluoro-1-((4-fluorophenyl)sulfonyl)pyrrolidine-2-carboxamide]: the IC50 amounted to 66 nM.
To `O=C(NCc1cc(-c2ccc(C(F)(F)F)nc2)ncn1)[C@@H]1C[C@]2(CN1S(=O)(=O)c1ccc(F)cc1)CC2(F)F` (single isomer, unassigned) [Example 124] belongs 113 nM; to `COc1nc(CNC(=O)[C@@H]2C[C@@H](F)CN2S(=O)(=O)c2ccc(F)cc2)cc(-c2ccc(C(F)(F)F)nc2)n1` [Example 127, (2S,4R)-4-fluoro-1-[(4-fluorobenzene)sulfonyl]-N-([2-methoxy-6-[6-(trifluoromethyl)pyridin-3-yl]pyrimidin-4-yl]methyl)pyrrolidine-2-carboxamide], 97 nM.
To `O=C(NCc1cc(-c2ccc(C(F)(F)F)nc2)cc(F)n1)[C@@H]1C[C@@H](F)CN1S(=O)(=O)c1ccc(F)cc1` [Example 120, (2S,4R)-4-fluoro-1-(4-fluorophenyl)sulfonyl-N-[[6-fluoro-4-[6-(trifluoromethyl)-3-pyridyl]-2-pyridyl]methyl]pyrrolidine-2-carboxamide] belongs 49 nM; to `O=C(NCc1cc(-c2ccc(OC(F)(F)F)cc2)ncn1)[C@@H]1C[C@@H](F)CN1S(=O)(=O)c1ccc(F)cc1` [Example 145, (2S,4R)-4-fluoro-1-(4-fluorophenylsulfonyl)-N-((6-(4-(trifluoromethoxy)phenyl)pyrimidin-4-yl)methyl)pyrrolidine-2-carboxamide], 21 nM; to `C[C@H]1CC[C@@H](C(=O)NCc2ccnc(-c3cnc(C(F)(F)F)nc3)c2)N1S(=O)(=O)c1ccc(F)cc1` [Example 186, (2S,5S)-1-(4-fluorophenylsulfonyl)-5-methyl-N-((2-(2-(trifluoromethyl)pyrimidin-5-yl)pyridin-4-yl)methyl)pyrrolidine-2-carboxamide], 4 nM.
The same measure for `COc1cnc(CNC(=O)[C@@H]2C[C@@H](F)CN2S(=O)(=O)c2ccc(F)cc2)cc1-c1ccc(C(F)(F)F)nc1` [Example 108, (2S,4R)-4-fluoro-1-[(4-fluorobenzene)sulfonyl]-N-([5-methoxy-4-[6-(trifluoromethyl)pyridin-3-yl]pyridin-2-yl]methyl)pyrrolidine-2-carboxamide]: 256 nM.
As to `O=C(NCc1cc(F)cc(-c2ccc(OC(F)F)nc2)c1)[C@@H]1C[C@@H](F)CN1S(=O)(=O)c1ccc(F)cc1` [Example 76, (2S,4R)—N-([3-[6-(difluoromethoxy)pyridin-3-yl]-5-fluorophenyl]methyl)-4-fluoro-1-[(4-fluorobenzene)sulfonyl]pyrrolidine-2-carboxamide], the IC50 was found to be 39 nM.
With `O=C(NCc1cc(-c2cnc(C(F)(F)F)nc2)c(Cl)cn1)[C@@H]1C[C@@H](F)CN1S(=O)(=O)c1ccc(F)cc1` [Example 192, (2S,4R)—N-([5-chloro-4-[2-(trifluoromethyl)pyrimidin-5-yl]pyridin-2-yl]methyl)-4-fluoro-1-[(4-fluorobenzene)sulfonyl]pyrrolidine-2-carboxamide], the IC50 turned out to be 42 nM.
In the case of `C[C@@]1(F)C[C@@H](C(=O)NCc2cc(F)cc(-c3ccc(C(F)(F)F)nn3)c2)N(S(=O)(=O)c2ccc(F)cc2)C1` [Example 45, (2S,4R)-4-fluoro-1-(4-fluorophenyl)sulfonyl-N-[[3-fluoro-5-[6-(trifluoromethyl)pyridazin-3-yl]phenyl]methyl]-4-methyl-pyrrolidine-2-carboxamide], the IC50 was determined as 24 nM.
Regarding `O=C(NCc1cc(F)cc(-n2ccc(C(F)(F)F)n2)c1)[C@@H]1C[C@@H](F)CN1S(=O)(=O)c1ccc(F)cc1` [Example 87, (2S,4R)-4-fluoro-1-(4-fluorophenyl)sulfonyl-N-[[3-fluoro-5-[3-(trifluoromethyl)pyrazol-1-yl]phenyl]methyl]pyrrolidine-2-carboxamide], the IC50 was 103 nM.
To “(2S,4R)-4-fluoro-1-(4-fluorophenyl)sulfonyl-N-[[3-fluoro-5-[2-(trifluoromethyl)thiazol-5-yl]phenyl]methyl]pyrrolidine-2-carboxamide [Example 174]” belongs 12 nM.
The same measure for `COc1nn(-c2ccc(C(F)(F)F)cc2)cc1CNC(=O)[C@@H]1C[C@@H](F)CN1S(=O)(=O)c1ccc(F)cc1` [Example 135, (2S,4R)-4-fluoro-1-[(4-fluorobenzene)sulfonyl]-N-([3-methoxy-1-[4-(trifluoromethyl)phenyl]-1H-pyrazol-4-yl]methyl)pyrrolidine-2-carboxamide]: 11 nM.
For `O=C(NCc1cncc(-c2cnc(C(F)(F)F)nc2)c1)[C@@H]1C[C@@H](F)CN1S(=O)(=O)c1ccc(F)cc1` [Example 195, (2S,4R)-4-fluoro-1-(4-fluorophenyl)sulfonyl-N-[[5-[2-(trifluoromethyl)pyrimidin-5-yl]-3-pyridyl]methyl]pyrrolidine-2-carboxamide], the IC50 amounted to 795 nM.
The same measure for `O=C(NCc1cc(-c2ccc(C(F)(F)F)cn2)cc(F)n1)[C@@H]1C[C@@H](F)CN1S(=O)(=O)c1ccc(F)cc1` [Example 49, (2S,4R)-4-fluoro-N-([6-fluoro-4-[5-(trifluoromethyl)pyridin-2-yl]pyridin-2-yl]methyl)-1-[(4-fluorobenzene)sulfonyl]pyrrolidine-2-carboxamide]: 9 nM.
The same measure for `N#Cc1cnc(CNC(=O)[C@@H]2C[C@@H](F)CN2S(=O)(=O)c2ccc(F)cc2)cc1-c1ccc(C(F)(F)F)cc1` [Example 70, (2S,4R)—N-((5-cyano-4-(4-(trifluoromethyl)phenyl)pyridin-2-yl)methyl)-4-fluoro-1-(4-fluorophenylsulfonyl)pyrrolidine-2-carboxamide]: 23 nM; for `O=C(NCc1cc(N2C3CCC2CC(C(F)(F)F)C3)c(F)cn1)[C@@H]1C[C@@H](F)CN1S(=O)(=O)c1ccc(F)cc1` (stereo partly drawn) [Example 121, (2S,4R)-4-fluoro-N-([5-fluoro-4-[3-(trifluoromethyl)-8-azabicyclo[3.2.1]octan-8-yl]pyridin-2-yl]methyl)-1-[(4-fluorobenzene)sulfonyl]pyrrolidine-2-carboxamide]: 741 nM.
To `O=C(NCc1cc(F)cc(-c2cnc(C(F)(F)F)nc2)c1)[C@]12C[C@H]1CCN2S(=O)(=O)c1ccc(F)cc1` [Example 181, (1R,5S)-4-(4-fluorophenyl)sulfonyl-N-[[3-fluoro-5-[2-(trifluoromethyl)pyrimidin-5-yl]phenyl]methyl]-4-azabicyclo[3.1.0]hexane-5-carboxamide] belongs 10 nM.
